Experimental data taken from the supplement of paper PMC10331698.
± gives the standard deviation of the averaged measurements.

Tests used:
Assay in all cases: level (log10 ratio to DMSO vehicle control); higher = higher biomarker level / cell amount than vehicle control
Conditions in all cases: in DMSO
Hexafluoroamylene glycol = compound: OCC(F)(F)C(F)(F)C(F)(F)CO [Hexafluoroamylene glycol]
Experimental: (§1)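 BioMAP Diversity Plus panel of 12 human primary cell co-culture systems (3C, 4H, LPS, SAg, BT, BF4T, BE3C, CASM3C, HDF3CGF, KF3CT, MyoF, Mphg). Compounds were added 1 h before stimulation and left for 24 h (MyoF 48 h; BT 72 h for soluble read-outs or 6 d for IgG). Biomarkers were read by ELISA, cytotoxicity by SRB, PBMC viability and proliferation by Alamar Blue. Each well value was divided by the mean of 8 DMSO control wells on the same plate and log10 transformed; duplicate blinded samples were tested at 4 concentrations.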

[1] = compound: O=S(=O)(Cl)C(F)(F)C(F)(F)C(F)(F)C(F)(F)C(F)(F)C(F)(F)C(F)(F)C(F)(F)F [Perfluoro-1-octanesulfonyl chloride]
Experimental: as §1

[2] = compound: O=S(=O)(F)C(F)(F)C(F)(F)C(F)(F)C(F)(F)C(F)(F)C(F)(F)C(F)(F)C(F)(F)F [Perfluorooctanesulfonyl fluoride]
Experimental: as §1

[3] = compound: O=S(=O)(O)C(F)(F)C(F)(F)C(F)(F)C(F)(F)C(F)(F)C(F)(F)C(F)(F)C(F)(F)C(F)(F)C(F)(F)F [Sodium perfluorodecanesulfonate]
Experimental: as §1

[4] = compound: FC(F)(F)C(F)(F)CNCC(F)(F)C(F)(F)F [Bis(1H,1H-perfluoropropyl)amine]
Experimental: as §1

[5] = compound: O=C(O)C=CC(F)(C(F)(F)F)C(F)(F)F [3-(Perfluoroisopropyl)-2-propenoic acid]
Experimental: as §1

Row | Test System | level (log10) (Hexafluoroamylene glycol; 6700 nM) | level (log10) (Hexafluoroamylene glycol; 20000 nM) | level (log10) (Hexafluoroamylene glycol; 60000 nM) | level (log10) ([1]; 6700 nM) | level (log10) ([1]; 20000 nM) | level (log10) ([1]; 60000 nM) | level (log10) ([2]; 6700 nM) | level (log10) ([2]; 20000 nM) | level (log10) ([2]; 60000 nM) | level (log10) ([3]; 1500 nM) | level (log10) ([3]; 4400 nM) | level (log10) ([3]; 13000 nM) | level (log10) ([3]; 40000 nM) | level (log10) ([4]; 6700 nM) | level (log10) ([4]; 20000 nM) | level (log10) ([4]; 60000 nM) | level (log10) ([5]; 6700 nM) | level (log10) ([5]; 20000 nM) | level (log10) ([5]; 60000 nM)
1 | CASM3C:CCL2/MCP-1 | -0.0085 ± 0.0064 | -0.014 ± 0.011 | 0.012 ± 0.047 | -0.0025 ± 0.0078 | -0.0115 ± 0.0092 | 0.031 ± 0.044 | -0.004 ± 0.014 | -0.0035 ± 0.005 | 0.0055 ± 0.03 | -0.022 ± 0.023 | -0.024 ± 0.0028 | 0.0115 ± 0.026 | 0.0095 ± 0.0064 | -0.0065 ± 0.013 | -0.0205 ± 0.015 | -0.0055 ± 0.04 | 0.007 ± 0.017 | -0.0055 ± 0.011 | 0.023 ± 0.044
2 | CASM3C:CD87/uPAR | 0.003 ± 0.021 | 0.0125 ± 0.011 | -0.0195 ± 0.035 | -0.0235 ± 0.054 | -0.0285 ± 0.054 | -0.0155 ± 0.069 | 0.0105 ± 0.0035 | 0.0065 ± 0.005 | 0.0225 ± 0.012 | 0.0455 ± 0.021 | -0.0065 ± 0.03 | 0.042 ± 0.0042 | 0.0075 ± 0.015 | -0.0255 ± 0.012 | -0.0155 ± 0.019 | -0.012 ± 0.035 | -0.006 ± 0.0057 | -0.0135 ± 0.012 | -0.015 ± 0.0042
3 | CASM3C:CD106/VCAM-1 | -0.0015 ± 0.023 | -0.012 ± 0.025 | -0.0015 ± 0.021 | -0.0395 ± 0.0092 | -0.0455 ± 0.015 | -0.0235 ± 0.032 | 0.0015 ± 0.032 | 0.0035 ± 0.05 | -0.008 ± 0.0085 | -0.043 ± 0.037 | -0.0795 ± 0.026 | -0.158 ± 0.037 | -0.153 ± 0.045 | -0.06 ± 0.024 | -0.0545 ± 0.026 | -0.0105 ± 0.053 | -0.0315 ± 0.013 | -0.015 ± 0.0014 | -0.0045 ± 0.071
4 | CASM3C:CD141/Thrombomodulin | 0.009 ± 0.041 | 0 ± 0.05 | 0.0135 ± 0.037 | -0.019 ± 0.011 | 0.012 ± 0.017 | 0.03 ± 0.0071 | -0.004 ± 0.0042 | -0.01 ± 0.0014 | -0.0075 ± 0.005 | 0.0625 ± 0.015 | 0.034 ± 0.0028 | 0.03 ± 0.038 | 0.166 ± 0.0092 | 0.019 ± 0.011 | 0.007 ± 0.0099 | 0.001 ± 0.02 | -0.0215 ± 0.011 | -0.001 ± 0.023 | 0.0075 ± 0.033
5 | CASM3C:CXCL8/IL-8 | 0.028 ± 0.023 | -0.0055 ± 0.021 | 0.0015 ± 0.021 | -0.021 ± 0.0057 | -0.0125 ± 0.013 | 0.015 ± 0.035 | 0.0025 ± 0.00071 | -0.0035 ± 0.0035 | 0.0035 ± 0.016 | 0.025 ± 0.016 | 0.01 ± 0.037 | 0.03 ± 0.021 | 0.064 ± 0.034 | -0.0065 ± 0.0092 | -0.005 ± 0.014 | 0.003 ± 0.027 | 0.008 ± 0.025 | 0.0025 ± 0.016 | 0.0225 ± 0.0021
6 | CASM3C:CXCL9/MIG | -0.03 ± 0.011 | -0.0225 ± 0.016 | 0.009 ± 0.024 | 0.0015 ± 0.052 | 0.013 ± 0.035 | 0.0735 ± 0.033 | -0.0025 ± 0.00071 | 0.001 ± 0.0057 | 0.0075 ± 0.011 | 0.0195 ± 0.036 | -0.0105 ± 0.011 | 0.0285 ± 0.043 | 0.0875 ± 0.043 | 0.0175 ± 0.025 | 0.006 ± 0.0014 | -0.0065 ± 0.069 | -0.004 ± 0.0099 | 0.002 ± 0.0057 | 0.027 ± 0.023
7 | CASM3C:HLA-DR | 0.014 ± 0.016 | 0.0095 ± 0.015 | -0.0015 ± 0.028 | -0.022 ± 0.014 | -0.053 ± 0.017 | -0.04 ± 0.064 | 0.0065 ± 0.022 | -0.0035 ± 0.0092 | 0.008 ± 0.0057 | 0.0555 ± 0.047 | 0.007 ± 0.024 | 0.0505 ± 0.036 | 0.0855 ± 0.0035 | -0.013 ± 0.0057 | -0.0105 ± 0.0021 | 0.015 ± 0.058 | -0.033 ± 0.011 | -0.0465 ± 0.022 | 0.0095 ± 0.044
